Data: article PMC9313110, “Modulating the Fibrillization of Parathyroid-Hormone (PTH) Peptides: Azo-Switches as Reversible and Catalytic Entities” (Biomedicines, 2022)
In brackets after ≈: the same amount, converted by molar mass. Starred links: 1 amine or outer side, 2 acyl side, 3 side chain; linkers in the order of their positions; H or OH if unused. Non-standard residues stand in square brackets, D forms with d. Residues, ends and D or L forms follow the SMILES beside them. X3 = O=C(c1cccc(N=Nc2ccc(CN[*:1])cc2)c1)[*:2]

What was measured:
[1] = in the dark; ref [41],[42]; cited from earlier work
[2] = format: physicochemical
Source text: We first studied the photophysical properties of the cis-trans-isomerization of AzoPTH25–37 (Figure 1b) by UV/Vis spectroscopy and HPLC analysis in pure water in order to minimize effects of a potential self-assembly and to quantify the generated amounts of the respective cis/trans-modified peptides before and after photoswitching. The UV/Vis spectra for the pure isomers (Figure S6) were separated from the spectra of trans-enriched AzoPTH25–37 in the thermodynamically stable state after synthesis and in the cis-enriched photostationary state (PSS, Figure 3) with Wolfram Mathematica 12.2. […] Both isomers display two isobestic points at 278 nm and 388 nm. They represent in the thermodynamically stable state a cis-trans ratio of 3:97. Under irradiation with UV light (340 nm), the cis-content could be increased of up to 82% in the cis-enriched PSS. Visible light (405 nm) yields 76% of the trans-isomer in the trans-enriched PSS via the back reaction. The difference of the trans-content between the trans-enriched PSS at 405 nm and the thermodynamically stable state arises from the overlapping of the n → π* transitions of both isomers at this wavelength. The rate of thermal cis-to-trans isomerization of AzoPTH25–37 follows first-order kinetics, and was determined by monitoring the increase of the π → π* absorption band at 327 nm (Figure S7) via time-dependent UV measurements.
2.3. […]

[3] = Maximum solubility in fibrillization buffer; format: physicochemical; conditions: 50 mM Na2HPO4 buffer (pH 7.4), UV-Vis absorption (ε = 49310 M-1cm-1 at 205 nm for PTH25-37, ε = 13000 M-1cm-1 at 327 nm for 3,4'-AMPB peptides)
Procedure: ThT-monitored fibrillization assays of artificial peptides and mixtures with PTH25–37 were investigated by fluorescence intensity measurements using thioflavin T (ThT) as fluorescent dye. Lyophilized peptides were dissolved in 50 mM Na2HPO4 buffer solution with a pH value of 7.4 in a concentration of 2 mg/mL and kept on ice for the next steps. The samples were centrifuged at 13,000× […] for 10 s and the concentrations were determined with a JASCO V-660 absorbance spectrometer (JASCO, Pfungstadt, Germany; PTH25–37 by absorbance at 205 nm and the molar extinction coefficient of 49,310 cm^−1M^−1; trans-AzoPTH25–37 by absorbance at 327 nm and the molar extinction coefficient of 13,000 cm^−1M^−1). Cis-AzoPTH25–37 was produced as described before. The solutions were centrifuged at 10,000 rpm for 1 h at 4 °C, the supernatant was transferred to another tube. The protein solutions were mixed in the desired ration and diluted with 50 mM Na2HPO4 buffer (pH 7.4) to obtain final concentrations of 0/100 μM PTH25–37, 50 μM ThT, and 0/10/20/50/100 μM AzoPTH25–37. For each sample, a total volume of 480 μL was prepared and 3 × 150 μL were transferred to a medium binding 96-well plate (Greiner Bio-One, Kremsmünster, Austria). The plate was sealed with a microplate cover. The fluorescence intensity was monitored at 37 °C using a BMG FLUOStar Omega multi-mode plate reader (BMG LABTECH, Ortenberg, Germany) using fluorescence excitation and emission wavelengths at 460 nm and 485 nm, respectively. One measurement cycle of 5 min consisted of double-orbital shaking for 150 s and incubating for 150 s.
2. Peptide Characterisation
Table S1: Primary sequence and solubility in 50 mM Na2PO4 buffer (pH 7.4) of peptides AzoPTH25-37 and SP1-
peptide primary sequencea solubility [μM]b
a Azo = 3,4’-AMPB; b maximum solubility was determined via UV-Vis absorption spectroscopy
2.2. HPLC- and MALDI-ToF-data
Figure S1: (A) HPLC-trace of AzoPTH25-37 (cis-isomer at 5.353, trans-isomer at 5.530). (B) MALDI-spectrum

[4] = ThT-monitored fibrillization assay of the pure peptides; format: physicochemical; conditions: pure peptide 100 μM; 50 μM ThT; 50 mM Na2HPO4, pH 7.4; 37 °C; fluorescence ex 460 nm/em 485 nm; average of triplets
Procedure: ThT-monitored fibrillization assays of artificial peptides and mixtures with PTH25–37 were investigated by fluorescence intensity measurements using thioflavin T (ThT) as fluorescent dye. Lyophilized peptides were dissolved in 50 mM Na2HPO4 buffer solution with a pH value of 7.4 in a concentration of 2 mg/mL and kept on ice for the next steps. The samples were centrifuged at 13,000× […] for 10 s and the concentrations were determined with a JASCO V-660 absorbance spectrometer (JASCO, Pfungstadt, Germany; PTH25–37 by absorbance at 205 nm and the molar extinction coefficient of 49,310 cm^−1M^−1; trans-AzoPTH25–37 by absorbance at 327 nm and the molar extinction coefficient of 13,000 cm^−1M^−1). Cis-AzoPTH25–37 was produced as described before. […] The fluorescence intensity was monitored at 37 °C using a BMG FLUOStar Omega multi-mode plate reader (BMG LABTECH, Ortenberg, Germany) using fluorescence excitation and emission wavelengths at 460 nm and 485 nm, respectively. […]
In order to determine the kinetics of fibril formation of both modified AzoPTH25–37 isomers a thioflavin T (ThT)-monitored fibrillization assay was conducted and compared to PTH25–37. […] Causing a large red shift of fluorescence excitation of ThT, which in turn enables the selective excitation of amyloid fibril-bound ThT and therefore the in situ observation of fibril formation. […]

| SMILES | solubility (maximum solubility) [3] [µM] | also measured |
| --- | --- | --- |
| NCc1ccc(N=Nc2cccc(C(=O)O)c2)cc1 [3,4′-AMPB, 3-{[(4-aminomethyl)phenyl]diazenyl}benzoic acid] |  | half-life time of thermal back-isomerization of the photoswitch [1]: more than 20 h |
| CC(C)C[C@H](NC(=O)[C@H](C)NC(=O)[C@@H](NC(=O)[C@H](Cc1ccccc1)NC(=O)[C@H](CC(N)=O)NC(=O)[C@H](Cc1c[nH]cn1)NC(=O)c1cccc(N=Nc2ccc(CNC(=O)[C@H](CC(=O)O)NC(=O)[C@H](CCC(N)=O)NC(=O)[C@H](CC(C)C)NC(=O)[C@H](CCCCN)NC(=O)[C@H](CCCCN)NC(=O)[C@@H](N)CCCNC(=N)N)cc2)c1)C(C)C)C(=O)O [AzoPTH25–37] (H-RKKLQD[X3]HNFVAL-OH) | 240 (≈ 409 µg/mL) | photostability in the dark [2]: more than 20 h; solubility (maximum solubility) ([3]; listed as AzoPTH25-37): 250 µM (≈ 426 µg/mL) |
| CC(C)C[C@H](NC(=O)[C@H](C)NC(=O)[C@@H](NC(=O)[C@H](Cc1ccccc1)NC(=O)[C@H](CC(N)=O)NC(=O)[C@H](Cc1c[nH]cn1)NC(=O)[C@@H](NC(=O)[C@H](CC(=O)O)NC(=O)[C@H](CCC(N)=O)NC(=O)[C@H](CC(C)C)NC(=O)[C@H](CCCCN)NC(=O)[C@H](CCCCN)NC(=O)[C@@H](N)CCCNC(=N)N)C(C)C)C(C)C)C(=O)O [PTH25–37] (H-RKKLQDVHNFVAL-OH) | > 1000 | tchar (time at which 50% of the maximum fluorescence was reached) [4]: 10.9 h; tlag (lag time, time before an increase in the fluorescence signal occurs) [4]: 7.2 h |

The next lines start with results.

| solubility (maximum solubility) [3] [µM] | SMILES | also measured |
| --- | --- | --- |
| 60 (≈ 108 µg/mL) | CC(C)C[C@H](NC(=O)[C@H](C)NC(=O)[C@@H](NC(=O)[C@H](Cc1ccccc1)NC(=O)[C@H](CC(N)=O)NC(=O)[C@H](Cc1c[nH]cn1)NC(=O)[C@@H](NC(=O)c1cccc(N=Nc2ccc(CNC(=O)[C@H](CC(=O)O)NC(=O)[C@H](CCC(N)=O)NC(=O)[C@H](CC(C)C)NC(=O)[C@H](CCCCN)NC(=O)[C@H](CCCCN)NC(=O)[C@@H](N)CCCNC(=N)N)cc2)c1)C(C)C)C(C)C)C(=O)O [SP1] (H-RKKLQD[X3]VHNFVAL-OH) |  |
| 55 (≈ 99.3 µg/mL) | CC(C)C[C@H](NC(=O)[C@H](C)NC(=O)[C@@H](NC(=O)[C@H](Cc1ccccc1)NC(=O)[C@H](CC(N)=O)NC(=O)[C@H](Cc1c[nH]cn1)NC(=O)c1cccc(N=Nc2ccc(CNC(=O)[C@@H](NC(=O)[C@H](CC(=O)O)NC(=O)[C@H](CCC(N)=O)NC(=O)[C@H](CC(C)C)NC(=O)[C@H](CCCCN)NC(=O)[C@H](CCCCN)NC(=O)[C@@H](N)CCCNC(=N)N)C(C)C)cc2)c1)C(C)C)C(=O)O [SP2] (H-RKKLQDV[X3]HNFVAL-OH) |  |
| 35 (≈ 59.2 µg/mL) | CC(C)C[C@H](NC(=O)[C@H](C)NC(=O)[C@@H](NC(=O)[C@H](Cc1ccccc1)NC(=O)[C@H](CC(N)=O)NC(=O)[C@H](Cc1c[nH]cn1)NC(=O)[C@@H](NC(=O)c1cccc(N=Nc2ccc(CNC(=O)[C@H](CCC(N)=O)NC(=O)[C@H](CC(C)C)NC(=O)[C@H](CCCCN)NC(=O)[C@H](CCCCN)NC(=O)[C@@H](N)CCCNC(=N)N)cc2)c1)C(C)C)C(C)C)C(=O)O [SP3] (H-RKKLQ[X3]VHNFVAL-OH) |  |
| 25 (≈ 39.8 µg/mL) | CC(C)C[C@H](NC(=O)[C@H](C)NC(=O)[C@@H](NC(=O)[C@H](Cc1ccccc1)NC(=O)[C@H](CC(N)=O)NC(=O)[C@H](Cc1c[nH]cn1)NC(=O)c1cccc(N=Nc2ccc(CNC(=O)[C@H](CCC(N)=O)NC(=O)[C@H](CC(C)C)NC(=O)[C@H](CCCCN)NC(=O)[C@H](CCCCN)NC(=O)[C@@H](N)CCCNC(=N)N)cc2)c1)C(C)C)C(=O)O [SP4] (H-RKKLQ[X3]HNFVAL-OH) |  |
